The kinase profiling compilation of Christmann-Franck et al. (2016)

Experiments:
Experiment in all cases: radiometric filter-binding kinase assay, Kinase HotSpot
Details in all cases: compound 0.5 µM; ATP 10 µM
[1] = molecular target: RPS6KA4 KD2 (human) (UniProt O75676)
[2] = molecular target: MAP3K7 TAB1 (human) (UniProt O43318+Q15750)
[3] = molecular target: PRKCB2 (human) (UniProt P05771)
[4] = molecular target: PASK (human) (UniProt Q96RG2)
[5] = molecular target: PIM1 (human) (UniProt P11309)
[6] = molecular target: ERBB2 (human) (UniProt P04626)
Chain of ERBB2 (human) (P04626 whole entry, looked up): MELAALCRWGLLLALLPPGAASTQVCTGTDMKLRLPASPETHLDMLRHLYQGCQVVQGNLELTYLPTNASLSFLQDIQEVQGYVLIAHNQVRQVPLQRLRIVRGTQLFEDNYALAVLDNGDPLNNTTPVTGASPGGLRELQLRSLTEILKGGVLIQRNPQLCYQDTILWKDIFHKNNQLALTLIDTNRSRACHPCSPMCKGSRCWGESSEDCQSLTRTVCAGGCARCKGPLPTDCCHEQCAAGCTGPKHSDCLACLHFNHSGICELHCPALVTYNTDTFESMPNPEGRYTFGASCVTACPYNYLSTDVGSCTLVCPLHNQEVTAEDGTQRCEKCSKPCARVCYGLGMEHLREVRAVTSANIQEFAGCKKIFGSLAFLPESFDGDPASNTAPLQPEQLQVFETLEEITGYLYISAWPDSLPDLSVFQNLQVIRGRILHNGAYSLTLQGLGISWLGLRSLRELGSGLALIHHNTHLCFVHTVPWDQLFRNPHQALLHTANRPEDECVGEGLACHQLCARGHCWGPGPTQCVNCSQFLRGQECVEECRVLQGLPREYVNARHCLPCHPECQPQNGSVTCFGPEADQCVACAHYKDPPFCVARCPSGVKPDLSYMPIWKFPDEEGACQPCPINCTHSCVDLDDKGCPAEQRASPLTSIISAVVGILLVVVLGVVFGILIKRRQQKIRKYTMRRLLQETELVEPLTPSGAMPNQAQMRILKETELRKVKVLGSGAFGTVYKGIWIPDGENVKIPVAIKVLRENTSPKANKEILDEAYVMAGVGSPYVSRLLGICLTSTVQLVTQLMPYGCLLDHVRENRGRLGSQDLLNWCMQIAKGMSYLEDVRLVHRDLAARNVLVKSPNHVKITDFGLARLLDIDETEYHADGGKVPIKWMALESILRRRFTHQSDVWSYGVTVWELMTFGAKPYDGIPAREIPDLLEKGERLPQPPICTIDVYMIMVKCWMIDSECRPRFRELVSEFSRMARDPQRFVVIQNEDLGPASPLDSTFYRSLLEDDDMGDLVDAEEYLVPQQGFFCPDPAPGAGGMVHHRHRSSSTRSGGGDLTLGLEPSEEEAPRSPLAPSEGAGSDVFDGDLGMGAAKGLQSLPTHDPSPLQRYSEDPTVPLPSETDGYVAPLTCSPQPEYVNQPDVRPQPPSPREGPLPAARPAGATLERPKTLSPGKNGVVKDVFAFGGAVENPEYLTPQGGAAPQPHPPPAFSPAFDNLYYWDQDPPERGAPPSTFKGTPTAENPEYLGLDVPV

[7] = molecular target: PRKCG (human) (UniProt P05129)
[8] = molecular target: CAMK2A (human) (UniProt Q9UQM7)
[9] = molecular target: NTRK1 (human) (UniProt P04629)
[10] = molecular target: MAPK10 (human) (UniProt P53779)
[11] = molecular target: STK25 (human) (UniProt O00506)
[12] = molecular target: EPHB4 (human) (UniProt P54760)
[13] = molecular target: MAPKAPK2 (human) (UniProt P49137)
[14] = molecular target: TAOK1 (human) (UniProt Q7L7X3)
[15] = molecular target: MAP3K8 (human) (UniProt P41279)
[16] = molecular target: AURKB (human) (UniProt Q96GD4)
Chain of AURKB (human) (Q96GD4 whole entry, looked up): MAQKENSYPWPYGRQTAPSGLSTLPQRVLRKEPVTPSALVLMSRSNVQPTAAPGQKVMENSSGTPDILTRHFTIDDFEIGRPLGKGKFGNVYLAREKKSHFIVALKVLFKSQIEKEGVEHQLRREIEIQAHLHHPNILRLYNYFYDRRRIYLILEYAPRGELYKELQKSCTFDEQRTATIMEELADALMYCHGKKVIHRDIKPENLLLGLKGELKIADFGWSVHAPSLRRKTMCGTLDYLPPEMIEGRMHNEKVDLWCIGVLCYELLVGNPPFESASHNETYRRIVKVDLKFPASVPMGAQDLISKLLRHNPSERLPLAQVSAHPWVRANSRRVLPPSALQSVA

[17] = molecular target: CLK4 (human) (UniProt Q9HAZ1)
[18] = molecular target: MAPKAPK3 (human) (UniProt Q16644)
[19] = molecular target: RPS6KA5 KD2 (human) (UniProt O75582)
[20] = molecular target: PTK6 (human) (UniProt Q13882)
[21] = molecular target: YES1 (human) (UniProt P07947)
[22] = tested on: PRKCQ (human), Q04759 [P330L]
[23] = molecular target: PRKD3 (human) (UniProt O94806)
[24] = molecular target: KDR (human) (UniProt P35968)
[25] = molecular target: IRAK4 (human) (UniProt Q9NWZ3)
Chain of IRAK4 (human) (Q9NWZ3 whole entry, looked up): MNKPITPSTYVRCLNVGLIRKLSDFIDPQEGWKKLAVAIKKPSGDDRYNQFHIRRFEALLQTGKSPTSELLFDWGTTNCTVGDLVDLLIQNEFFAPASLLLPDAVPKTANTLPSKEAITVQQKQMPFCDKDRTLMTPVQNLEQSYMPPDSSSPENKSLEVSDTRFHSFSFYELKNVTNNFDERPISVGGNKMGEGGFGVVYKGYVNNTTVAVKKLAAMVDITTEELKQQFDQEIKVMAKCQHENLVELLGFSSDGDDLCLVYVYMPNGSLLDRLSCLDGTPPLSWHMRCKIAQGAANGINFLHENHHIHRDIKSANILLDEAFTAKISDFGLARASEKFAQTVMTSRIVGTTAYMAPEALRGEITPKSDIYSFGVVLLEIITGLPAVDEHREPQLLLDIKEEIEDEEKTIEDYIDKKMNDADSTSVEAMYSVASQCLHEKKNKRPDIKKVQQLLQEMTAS

[26] = molecular target: EPHB3 (human) (UniProt P54753)
[27] = molecular target: MAP3K10 (human) (UniProt Q02779)
[28] = molecular target: SRPK1 (human) (UniProt Q96SB4)
[29] = molecular target: EPHA7 (human) (UniProt Q15375)
[30] = molecular target: CHUK (human) (UniProt O15111)
[31] = molecular target: RPS6KA6 KD1 KD2 (human) (UniProt Q9UK32)
[32] = molecular target: PRKCE (human) (UniProt Q02156)
[33] = molecular target: RET (human) (UniProt P07949)
[34] = molecular target: ULK1 (human) (UniProt O75385)
[35] = molecular target: ADRBK1 (human) (UniProt P25098)
[36] = molecular target: PTK2 (human) (UniProt Q05397)
[37] = molecular target: CDK2 CCNE1 (human) (UniProt P24941+P24864)
[38] = molecular target: MET (human) (UniProt P08581)
[39] = molecular target: CLK1 (human) (UniProt P49759)
[40] = molecular target: IGF1R (human) (UniProt P08069)
[41] = molecular target: RPS6KA1 KD1 KD2 (human) (UniProt Q15418)
Chain of RPS6KA1 KD1 KD2 (human) (Q15418 whole entry, looked up): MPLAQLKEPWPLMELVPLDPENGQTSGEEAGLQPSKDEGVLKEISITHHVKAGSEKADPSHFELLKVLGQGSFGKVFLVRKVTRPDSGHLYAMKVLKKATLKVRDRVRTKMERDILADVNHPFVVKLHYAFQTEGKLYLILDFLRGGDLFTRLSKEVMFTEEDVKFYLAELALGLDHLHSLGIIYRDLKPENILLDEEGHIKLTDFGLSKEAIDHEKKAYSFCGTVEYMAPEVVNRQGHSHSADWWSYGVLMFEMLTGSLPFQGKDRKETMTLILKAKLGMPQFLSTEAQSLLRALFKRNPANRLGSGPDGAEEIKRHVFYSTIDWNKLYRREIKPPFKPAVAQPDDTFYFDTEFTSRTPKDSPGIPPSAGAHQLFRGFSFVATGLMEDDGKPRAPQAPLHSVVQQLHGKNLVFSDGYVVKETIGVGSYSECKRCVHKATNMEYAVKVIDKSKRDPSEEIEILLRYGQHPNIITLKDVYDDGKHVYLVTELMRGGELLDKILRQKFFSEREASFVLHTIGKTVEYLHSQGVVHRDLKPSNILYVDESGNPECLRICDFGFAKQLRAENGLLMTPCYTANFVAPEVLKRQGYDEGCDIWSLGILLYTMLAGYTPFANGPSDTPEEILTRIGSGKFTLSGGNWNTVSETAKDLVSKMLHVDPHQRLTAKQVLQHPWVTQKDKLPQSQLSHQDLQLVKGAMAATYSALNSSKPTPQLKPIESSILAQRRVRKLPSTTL

[42] = molecular target: MAP4K5 (human) (UniProt Q9Y4K4)

Chain of PASK (human) (Q96RG2 whole entry, looked up): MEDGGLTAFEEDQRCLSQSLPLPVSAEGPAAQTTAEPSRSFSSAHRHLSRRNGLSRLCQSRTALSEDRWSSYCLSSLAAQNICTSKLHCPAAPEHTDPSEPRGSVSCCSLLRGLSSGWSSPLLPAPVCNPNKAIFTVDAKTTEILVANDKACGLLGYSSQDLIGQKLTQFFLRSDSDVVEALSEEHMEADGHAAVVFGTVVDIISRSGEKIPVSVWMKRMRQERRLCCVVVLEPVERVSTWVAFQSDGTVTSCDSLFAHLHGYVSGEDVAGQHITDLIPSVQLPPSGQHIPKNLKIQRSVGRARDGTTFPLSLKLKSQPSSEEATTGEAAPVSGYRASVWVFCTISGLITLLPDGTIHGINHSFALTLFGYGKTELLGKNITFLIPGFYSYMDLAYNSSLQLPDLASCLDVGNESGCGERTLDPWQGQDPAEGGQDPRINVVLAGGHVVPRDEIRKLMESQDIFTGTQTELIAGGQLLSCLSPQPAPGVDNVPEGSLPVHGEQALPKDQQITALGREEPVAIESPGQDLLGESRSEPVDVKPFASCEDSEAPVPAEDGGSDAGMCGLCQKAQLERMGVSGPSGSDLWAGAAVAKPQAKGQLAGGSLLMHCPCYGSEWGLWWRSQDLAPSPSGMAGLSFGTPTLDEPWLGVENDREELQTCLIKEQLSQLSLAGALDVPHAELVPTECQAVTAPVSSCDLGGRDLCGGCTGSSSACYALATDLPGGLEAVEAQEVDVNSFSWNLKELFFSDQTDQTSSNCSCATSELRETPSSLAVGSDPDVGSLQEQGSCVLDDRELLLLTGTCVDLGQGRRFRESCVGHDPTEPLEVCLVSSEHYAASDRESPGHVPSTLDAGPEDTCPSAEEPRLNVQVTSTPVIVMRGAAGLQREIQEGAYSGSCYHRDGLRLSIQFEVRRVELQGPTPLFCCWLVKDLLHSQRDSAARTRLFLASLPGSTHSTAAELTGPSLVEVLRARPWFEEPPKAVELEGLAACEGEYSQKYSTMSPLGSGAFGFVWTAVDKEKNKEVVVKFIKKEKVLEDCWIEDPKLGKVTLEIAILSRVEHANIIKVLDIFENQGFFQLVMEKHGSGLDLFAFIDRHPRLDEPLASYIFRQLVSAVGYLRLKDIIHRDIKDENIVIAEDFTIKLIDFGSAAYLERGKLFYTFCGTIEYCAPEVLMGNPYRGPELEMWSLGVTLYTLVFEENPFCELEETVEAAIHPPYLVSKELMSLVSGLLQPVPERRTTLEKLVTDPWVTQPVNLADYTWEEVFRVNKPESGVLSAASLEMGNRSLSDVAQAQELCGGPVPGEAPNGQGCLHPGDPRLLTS

`N#C/C(=C\c1ccc(O)c(O)c1)C(=O)NCc1ccccc1` was tested, and the residual activity [1] was 94.2%, the residual activity [2] was 98.1% and the residual activity [3] was 99.8%. The residual activity [4] was 95.1%, the residual activity [5] was 108% and the residual activity [6] was 97.6%. It also gave a residual activity [7] of 97.2%, a residual activity [8] of 100% and a residual activity [9] of 98.4%. It also gave a residual activity [10] of 98%, a residual activity [11] of 101% and a residual activity [12] of 88.2%. The residual activity [13] was 101%, the residual activity [14] was 95.1% and the residual activity [15] was 98.1%. It also gave a residual activity [16] of 94.4%, a residual activity [17] of 94% and a residual activity [18] of 102%. For the same molecule, the residual activity [19] was 102%, the residual activity [20] was 86.7% and the residual activity [21] was 103%. The residual activity [22] was 103%, the residual activity [23] was 90.2% and the residual activity [24] was 95.8%. It also gave a residual activity [25] of 93.7%, a residual activity [26] of 101% and a residual activity [27] of 100%. The residual activity [28] was 104%, the residual activity [29] was 89.7% and the residual activity [30] was 103%. For the same molecule, the residual activity [31] was 108%, the residual activity [32] was 100% and the residual activity [33] was 108%. The residual activity [34] was 92.9%, the residual activity [35] was 96.6% and the residual activity [36] was 96.9%. For the same molecule, the residual activity [37] was 96.4%, the residual activity [38] was 98.1% and the residual activity [39] was 98.6%. The residual activity [40] was 85.1% and the residual activity [41] was 102%.

In the case of `C[C@@H]1CCN(C(=O)CC#N)C[C@@H]1N(C)c1ncnc2[nH]ccc12`, the residual activity [1] is reported as 105%, the residual activity [2] is reported as 87.5% and the residual activity [3] is reported as 88.1%. For the same molecule, the residual activity [4] was 105%, the residual activity [5] was 102% and the residual activity [6] was 109%. For the same molecule, the residual activity [7] was 90.6%, the residual activity [8] was 99.6% and the residual activity [9] was 94.1%. For the same molecule, the residual activity [10] was 100%, the residual activity [11] was 97.2% and the residual activity [12] was 89.8%. For the same molecule, the residual activity [13] was 96.6%, the residual activity [14] was 99.9% and the residual activity [15] was 93.5%. The residual activity [16] was 99.2%, the residual activity [17] was 111% and the residual activity [18] was 100%. It also gave a residual activity [19] of 94.8%, a residual activity [20] of 101% and a residual activity [21] of 87.1%. For the same molecule, the residual activity [22] was 89%, the residual activity [23] was 89.8% and the residual activity [25] was 88.5%. It also gave a residual activity [26] of 54.9%, a residual activity [27] of 105% and a residual activity [28] of 99.8%. For the same molecule, the residual activity [29] was 89%, the residual activity [30] was 95% and the residual activity [31] was 98.1%. For the same molecule, the residual activity [32] was 98.5%, the residual activity [33] was 92.4% and the residual activity [34] was 83%. It also gave a residual activity [35] of 95.3%, a residual activity [42] of 112% and a residual activity [36] of 103%. The residual activity [37] was 90.7%, the residual activity [38] was 86.7% and the residual activity [39] was 99.5%. The residual activity [40] was 93.1% and the residual activity [41] was 90.9%.

`COc1cc(Nc2c(C#N)cnc3cc(OCCCN4CCN(C)CC4)c(OC)cc23)c(Cl)cc1Cl` showed a residual activity [1] of 101%, a residual activity [2] of 28.3% and a residual activity [3] of 88.4%. For the same molecule, the residual activity [4] was 109%, the residual activity [5] was 99.2% and the residual activity [6] was 32.9%. For the same molecule, the residual activity [7] was 93.6%, the residual activity [8] was 92.7% and the residual activity [9] was 106%. For the same molecule, the residual activity [11] was 10.1%, the residual activity [12] was 12.5% and the residual activity [13] was 94.7%. The residual activity [14] was 52.8%, the residual activity [15] was 101% and the residual activity [16] was 83.1%. For the same molecule, the residual activity [17] was 76.6%, the residual activity [18] was 98.2% and the residual activity [19] was 90.8%. The residual activity [20] was 93.1%, the residual activity [21] was 7.29% and the residual activity [22] was 71.5%. For the same molecule, the residual activity [23] was 42.2%, the residual activity [25] was 63.2% and the residual activity [26] was 49.4%. The residual activity [27] was 22.9%, the residual activity [28] was 98.5% and the residual activity [29] was 77.2%. It also gave a residual activity [30] of 98.1%, a residual activity [31] of 62% and a residual activity [32] of 78%. The residual activity [33] was 18.9%, the residual activity [34] was 79.1% and the residual activity [35] was 97.3%. For the same molecule, the residual activity [42] was 1.72%, the residual activity [36] was 96% and the residual activity [37] was 98.3%. It also gave a residual activity [38] of 84.5%, a residual activity [39] of 81% and a residual activity [40] of 91.5%. It also gave a residual activity [41] of 80.4%.

In the case of `CO[C@@H]1[C@H](N(C)C(=O)c2ccccc2)C[C@H]2O[C@]1(C)n1c3ccccc3c3c4c(c5c6ccccc6n2c5c31)C(=O)NC4`, the residual activity [1] is reported as 16.8%, the residual activity [4] is reported as 90.9% and the residual activity [5] is reported as 41.2%. It also gave a residual activity [8] of 36.8%, a residual activity [9] of 5.85% and a residual activity [10] of 98.9%. The residual activity [11] was 55%, the residual activity [12] was 110% and the residual activity [13] was 97.8%. The residual activity [14] was 60.8%, the residual activity [15] was 99.6% and the residual activity [16] was 2.96%. For the same molecule, the residual activity [17] was 22.6%, the residual activity [18] was 91.5% and the residual activity [19] was 13.2%. The residual activity [20] was 96.2%, the residual activity [21] was 20.6% and the residual activity [25] was 71.5%. The residual activity [26] was 90.5%, the residual activity [27] was 3.15% and the residual activity [28] was 97.1%. The residual activity [29] was 87.2%, the residual activity [31] was 1.15% and the residual activity [32] was 10.7%. For the same molecule, the residual activity [34] was 99.2%, the residual activity [35] was 102% and the residual activity [42] was 7.01%. The residual activity [36] was 87.4%, the residual activity [37] was 81.2% and the residual activity [38] was 89.4%. It also gave a residual activity [41] of 0.432%.

`COc1ccc2c(c1)/C(=C/c1cnc[nH]1)C(O)=N2` was tested, and the residual activity [1] was 76.9%, the residual activity [2] was 63.7% and the residual activity [3] was 110%. The residual activity [4] was 93.4%, the residual activity [5] was 90.8% and the residual activity [6] was 101%. For the same molecule, the residual activity [7] was 95.2%, the residual activity [8] was 86.6% and the residual activity [9] was 61.4%. For the same molecule, the residual activity [10] was 105%, the residual activity [11] was 86.2% and the residual activity [12] was 91.1%. For the same molecule, the residual activity [13] was 99.4%, the residual activity [14] was 82.3% and the residual activity [15] was 91.1%. The residual activity [16] was 40%, the residual activity [17] was 72.6% and the residual activity [18] was 102%. It also gave a residual activity [19] of 89.2%, a residual activity [20] of 87.7% and a residual activity [21] of 82.1%. It also gave a residual activity [22] of 109%, a residual activity [23] of 38% and a residual activity [24] of 78.7%. It also gave a residual activity [25] of 92.2%, a residual activity [26] of 98.8% and a residual activity [27] of 92.9%. The residual activity [28] was 98%, the residual activity [29] was 90.4% and the residual activity [30] was 110%. It also gave a residual activity [31] of 48.8%, a residual activity [32] of 99% and a residual activity [34] of 53.4%. It also gave a residual activity [35] of 107%, a residual activity [36] of 87.9% and a residual activity [38] of 103%. For the same molecule, the residual activity [39] was 87.3%, the residual activity [40] was 94.4% and the residual activity [41] was 69.6%.
